These are literature values, as cited in US10858575B2, “Temperature-stable corrosion inhibitor compositions and methods of use” (ChampionX USA Inc., priority 2017, dated 2020).

The structures appear in SMILES notation.

One may read the LogP as the decadic logarithm of the partition coefficient of the neutral form, usually between octanol and water.

For data set [1] the following is noted: at 20° C.
The conditions of data set [2]: octanol/water.

With `CCCOC(C)COC(C)CO` (centres unmarked) [dipropylene glycol propyl ether], the vapor pressure in data set [1] is reported as 0.08 mm Hg.

On to `CCCCOC(C)COC(C)COC(C)CO` (centres unmarked) [tripropylene glycol butyl ether], for which, in data set [1], the vapor pressure is listed as 0.002 mm Hg.

`CCOCCOCCO` [diethylene glycol ethyl ether]: in data set [1], the vapor pressure is 0.12 mm Hg.

On to `CCCCCCOCCO` [ethylene glycol hexyl ether], for which, in data set [1], the vapor pressure is listed as 0.05 mm Hg.

As for `CCCOCC(C)O` (centres unmarked) [propylene glycol propyl ether], in data set [1], the vapor pressure is recorded as 4.5 mm Hg.

`CCCCOCCO` [ethylene glycol butyl ether]: the vapor pressure in data set [1] is 10 mm Hg.

Take `COCCOCCO` [diethylene glycol methyl ether]: the vapor pressure in data set [1] is 0.2 mm Hg.

For the molecule `COC(C)COC(C)CO` (centres unmarked) [dipropylene glycol methyl ether], the vapor pressure in data set [1] is recorded as 0.28 mm Hg.

In the case of `CCCCCCOCCOCCO` [diethylene glycol hexyl ether], the vapor pressure in data set [1] is reported as 0.001 mm Hg.

For the molecule `COCC(C)O` (centres unmarked) [propylene glycol methyl ether], the vapor pressure in data set [1] is 8.7 mm Hg.

With `CCCCOCCOCCO` [diethylene glycol butyl ether], the vapor pressure in data set [1] was 30 mm Hg.

`CCOCCO` [ethylene glycol ethyl ether]: the vapor pressure in data set [1] was 3.8 mm Hg.

On to `O=C1CCCO1`, for which the LogP in data set [2] was −0.57.

For the molecule `CCCCOCC(C)O` (centres unmarked) [propylene glycol butyl ether], the vapor pressure in data set [1] is listed as 0.85 mm Hg.
